Legend:
Carbonic anhydrase 7 = Carbonic anhydrase 7 (Homo sapiens, UniProt P43166); test: Inhibition of human recombinant carbonic anhydrase 7 preincubated for 15 mins at room temperature/6 hrs at 4 deg C by stopped-flow CO2 hydration assay
Carbonic anhydrase 2 [1] = target: T1, Carbonic anhydrase 2 (Homo sapiens, UniProt P00918); test: Inhibition of human recombinant carbonic anhydrase 2 preincubated for 15 mins at room temperature/6 hrs at 4 deg C by stopped-flow CO2 hydration assay
Carbonic anhydrase 1 [2] = target: T2, Carbonic anhydrase 1 (Homo sapiens, UniProt P00915); test: Inhibition of human recombinant carbonic anhydrase 1 preincubated for 15 mins at room temperature/6 hrs at 4 deg C by stopped-flow CO2 hydration assay
Carbonic anhydrase 4 [3] = target: T3, Carbonic anhydrase 4 (Homo sapiens, UniProt P22748); test: Inhibition of human recombinant carbonic anhydrase 4 preincubated for 15 mins at room temperature/6 hrs at 4 deg C by stopped-flow CO2 hydration assay
Carbonic anhydrase 12 [4] = target: T4, Carbonic anhydrase 12 (Homo sapiens, UniProt O43570); test: Inhibition of human recombinant carbonic anhydrase 12 preincubated for 15 mins at room temperature/6 hrs at 4 deg C by stopped-flow CO2 hydration assay
Carbonic anhydrase 12 [5] = target: T4, Carbonic anhydrase 12; test: Inhibition of human recombinant carbonic anhydrase 12
Carbonic anhydrase 1 [6] = target: T2, Carbonic anhydrase 1; test: Inhibition of human recombinant carbonic anhydrase 1
Carbonic anhydrase 2 [7] = target: T1, Carbonic anhydrase 2; test: Inhibition of human recombinant carbonic anhydrase 2
Carbonic anhydrase 4 [8] = target: T3, Carbonic anhydrase 4; test: Inhibition of human recombinant carbonic anhydrase 4

Chain of Carbonic anhydrase 7 (P43166 whole entry): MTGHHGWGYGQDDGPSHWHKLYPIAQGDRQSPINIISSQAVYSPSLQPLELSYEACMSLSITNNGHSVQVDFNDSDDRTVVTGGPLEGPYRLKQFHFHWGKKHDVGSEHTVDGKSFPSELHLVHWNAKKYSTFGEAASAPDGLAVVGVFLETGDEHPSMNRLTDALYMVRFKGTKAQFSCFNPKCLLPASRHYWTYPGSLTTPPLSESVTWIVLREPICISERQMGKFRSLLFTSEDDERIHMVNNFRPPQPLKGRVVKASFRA
T3 sequence (P22748 whole entry): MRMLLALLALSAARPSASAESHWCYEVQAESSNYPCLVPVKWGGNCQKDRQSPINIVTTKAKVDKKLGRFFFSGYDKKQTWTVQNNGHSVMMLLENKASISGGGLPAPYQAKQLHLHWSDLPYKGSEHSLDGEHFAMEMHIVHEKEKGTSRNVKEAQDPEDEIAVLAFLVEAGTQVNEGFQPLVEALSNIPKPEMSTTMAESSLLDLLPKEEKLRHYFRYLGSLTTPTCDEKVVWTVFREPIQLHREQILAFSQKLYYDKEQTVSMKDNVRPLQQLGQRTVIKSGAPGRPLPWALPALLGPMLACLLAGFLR
T2 sequence (P00915 whole entry): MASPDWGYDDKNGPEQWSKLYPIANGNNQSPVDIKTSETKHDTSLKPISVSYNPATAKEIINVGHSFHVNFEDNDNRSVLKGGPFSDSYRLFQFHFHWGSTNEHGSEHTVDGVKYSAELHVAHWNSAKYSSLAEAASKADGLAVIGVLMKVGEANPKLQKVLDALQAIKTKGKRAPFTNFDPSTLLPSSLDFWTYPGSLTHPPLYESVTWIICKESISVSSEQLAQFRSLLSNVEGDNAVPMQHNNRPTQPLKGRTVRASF
T4 sequence (O43570 whole entry): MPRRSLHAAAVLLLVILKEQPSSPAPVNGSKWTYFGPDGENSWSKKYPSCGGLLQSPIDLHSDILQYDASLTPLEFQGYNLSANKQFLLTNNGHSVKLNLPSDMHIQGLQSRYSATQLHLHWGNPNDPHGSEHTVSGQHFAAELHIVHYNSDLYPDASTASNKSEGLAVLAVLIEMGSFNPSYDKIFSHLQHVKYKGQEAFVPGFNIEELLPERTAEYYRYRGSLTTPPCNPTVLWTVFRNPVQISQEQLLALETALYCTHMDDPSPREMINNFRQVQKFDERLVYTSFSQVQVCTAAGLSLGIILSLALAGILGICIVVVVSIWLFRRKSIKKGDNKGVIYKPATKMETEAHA

Row | Ki (Carbonic anhydrase 7) | Ki (Carbonic anhydrase 2 [1]) | Ki (Carbonic anhydrase 1 [2]) | Ki (Carbonic anhydrase 4 [3]) | Ki (Carbonic anhydrase 12 [4]) | Compound | Ki (Carbonic anhydrase 12 [5]) | Ki (Carbonic anhydrase 1 [6]) | Ki (Carbonic anhydrase 2 [7]) | Ki (Carbonic anhydrase 4 [8])
1 | 4.7 nM | 8790 nM | > 10000 nM | 344 nM | 409 nM | O=C(/C=C/c1ccc(O)cc1)OC[C@H]1O[C@@H](Oc2c(-c3ccc(O)cc3)oc3cc(O)cc(O)c3c2=O)[C@H](OC(=O)/C=C/c2ccc(O)cc2)[C@@H](O)[C@@H]1O | – | – | – | –
2 | 26.6 nM | 6860 nM | > 10000 nM | 62.2 nM | 400 nM | CC(=O)O[C@@H]1[C@@H](OC(=O)/C=C/c2ccc(O)cc2)[C@H](Oc2c(-c3ccc(O)cc3)oc3cc(O)cc(O)c3c2=O)O[C@H](COC(=O)/C=C/c2ccc(O)cc2)[C@H]1OC(C)=O | – | – | – | –
3 | 424 nM | 168 nM | > 10000 nM | 5590 nM | 4.9 nM | O=c1c(O[C@@H]2O[C@H](CO)[C@@H](O)[C@H](O)[C@H]2O)c(-c2ccc(O)cc2)oc2cc(O)cc(O)c12 [ASTRAGALIN] | – | – | – | –
4 | 24.5 nM | > 10000 nM | > 10000 nM | 568 nM | 41.8 nM | O=c1c(O)c(-c2ccccc2)oc2cc(O)cc(O)c12 [GALANGIN] | – | – | – | –
5 | 3.8 nM | 6210 nM | > 10000 nM | 75.7 nM | 52.1 nM | O=c1c(O[C@@H]2O[C@H](CO)[C@@H](O)[C@H](O)[C@H]2O)c(-c2ccc(O)c(O)c2)oc2cc(O)cc(O)c12 [ISOQUERCETIN] | 170 nM | > 10000 nM | 410 nM | –
6 | 268 nM | > 10000 nM | > 10000 nM | 101 nM | – | O=C(/C=C/c1ccc(O)c2c1[C@H](C(=O)O)[C@@H](c1ccc(O)c(O)c1)O2)O[C@H](Cc1ccc(O)c(O)c1)C(=O)O [LITHOSPERMIC ACID] | – | – | – | –
7 | 71.4 nM | 9590 nM | > 10000 nM | 66.6 nM | 39.8 nM | O=C(/C=C/c1ccc(O)c(O)c1/C=C/c1ccc(O)c(O)c1)O[C@H](Cc1ccc(O)c(O)c1)C(=O)O [SALVIANOLIC ACID A] | – | – | – | –
8 | 4.6 nM | > 10000 nM | > 10000 nM | 5470 nM | 134 nM | O=C(/C=C/c1ccc(O)cc1)OC[C@H]1O[C@@H](Oc2c(-c3ccc(O)cc3)oc3cc(O)cc(O)c3c2=O)[C@H](O)[C@@H](O)[C@@H]1O [TILIROSIDE] | – | – | – | –

Further lines, the molecule ahead of its results:

Row | Compound | Ki (Carbonic anhydrase 7) | Ki (Carbonic anhydrase 2 [1]) | Ki (Carbonic anhydrase 1 [2]) | Ki (Carbonic anhydrase 4 [3]) | Ki (Carbonic anhydrase 12 [4]) | Ki (Carbonic anhydrase 12 [5]) | Ki (Carbonic anhydrase 1 [6]) | Ki (Carbonic anhydrase 2 [7]) | Ki (Carbonic anhydrase 4 [8])
9 | O=C1c2c(O)cc(O)cc2O[C@H](c2ccc(O)c(O)c2)[C@H]1O [(+)-TAXIFOLIN] | – | – | > 10000 nM | – | – | – | – | – | –
10 | COc1ccc(-c2coc3cc(O)cc(O)c3c2=O)cc1 [BIOCHANIN] | 372 nM | > 10000 nM | > 10000 nM | 7080 nM | 52.5 nM | – | – | – | –
11 | O=c1cc(-c2ccccc2)oc2cc(O)cc(O)c12 [CHRYSIN] | 171 nM | > 10000 nM | > 10000 nM | 538 nM | 34.7 nM | – | – | – | –
12 | O=c1c(-c2ccc(O)cc2)coc2cc(O)ccc12 [DAIDZEIN] | 4.2 nM | > 10000 nM | > 10000 nM | 719 nM | 56.4 nM | – | – | – | –
13 | O=C1C[C@@H](c2ccc(O)c(O)c2)Oc2cc(O)cc(O)c21 [ERIODICTYOL] | 4.3 nM | > 10000 nM | > 10000 nM | 72.8 nM | 31.1 nM | – | – | – | –
14 | COc1ccc([C@@H]2CC(=O)c3c(O)cc(O)cc3O2)cc1O [HESPERETIN] | 3.3 nM | > 10000 nM | > 10000 nM | 102 nM | 454 nM | – | – | – | –
15 | COc1cc(-c2oc3cc(O)cc(O)c3c(=O)c2O)ccc1O [ISORHAMNETIN] | 4.4 nM | > 10000 nM | > 10000 nM | 213 nM | 54.9 nM | 220 nM | > 10000 nM | 440 nM | –
16 | O=c1c(O)c(-c2ccc(O)cc2)oc2cc(O)cc(O)c12 [KAEMPFEROL] | 25 nM | 9530 nM | > 10000 nM | > 10000 nM | 146 nM | – | – | – | –
17 | O=c1cc(-c2ccc(O)c(O)c2)oc2cc(O)cc(O)c12 [LUTEOLIN] | 4.7 nM | 3690 nM | > 10000 nM | – | 60.3 nM | – | – | – | 293 nM
18 | O=C1C[C@@H](c2ccc(O)cc2)Oc2cc(O)cc(O)c21 [NARINGENIN] | 4.3 nM | > 10000 nM | > 10000 nM | 79.5 nM | 44.3 nM | – | – | – | –
19 | O=c1c(-c2ccc(O)cc2)coc2c([C@@H]3O[C@H](CO)[C@@H](O)[C@H](O)[C@H]3O)c(O)ccc12 [PUERARIN] | 453 nM | > 10000 nM | > 10000 nM | > 10000 nM | – | – | – | – | –
20 | C[C@@H]1O[C@@H](Oc2c(-c3ccc(O)c(O)c3)oc3cc(O)cc(O)c3c2=O)[C@H](O)[C@H](O)[C@H]1O [QUERCETIN-3-O-RHAMNOSIDE] | 3.9 nM | 6370 nM | > 10000 nM | 67.3 nM | 43.5 nM | – | – | – | –

From ChEMBL document CHEMBL3627624, “New natural product carbonic anhydrase inhibitors incorporating phenol moieties” (Bioorg Med Chem, 2015)
